PMC5513037, “Examining the influence of specificity ligands and ATP-competitive ligands on the overall effectiveness of bivalent kinase inhibitors” (Proteome Science, 2017)

Columns and labels:
NEK2 = target: T1, NEK2 (Homo sapiens, UniProt P51955); assay: KAM-matrix competition in K562 lysate; assay type: binding;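 for 0.001 uM KAM: median log10 fold change of treatment over DMSO control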;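 for 0.01 uM KAM: median log10 fold change of treatment over DMSO control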;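 for 0.1 uM KAM: median log10 fold change of treatment over DMSO control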;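 for 1 uM KAM: median log10 fold change of treatment over DMSO control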;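 for 10 uM KAM: median log10 fold change of treatment over DMSO control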
T1 construct: endogenous in cells; host or cells: K562
T1 sequence (P51955 1-445): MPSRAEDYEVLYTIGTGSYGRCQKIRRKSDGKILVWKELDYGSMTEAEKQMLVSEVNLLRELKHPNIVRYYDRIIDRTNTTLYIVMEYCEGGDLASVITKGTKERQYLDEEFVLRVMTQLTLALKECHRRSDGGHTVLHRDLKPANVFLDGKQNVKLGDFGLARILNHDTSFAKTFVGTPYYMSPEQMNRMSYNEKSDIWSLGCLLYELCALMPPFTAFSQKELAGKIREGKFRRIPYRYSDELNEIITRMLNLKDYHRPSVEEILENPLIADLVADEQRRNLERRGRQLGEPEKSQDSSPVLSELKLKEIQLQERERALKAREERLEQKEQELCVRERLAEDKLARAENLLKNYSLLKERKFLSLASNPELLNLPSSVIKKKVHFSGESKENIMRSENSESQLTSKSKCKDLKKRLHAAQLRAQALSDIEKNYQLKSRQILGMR
Description: (§1) Supplement 12953_2017_125_MOESM1_ESM.zip/MS_Supp Info.xlsx, sheet "KAM" | column: 10 uM KAM; 1 uM KAM; 0.1 uM KAM; 0.01 uM KAM; 0.001 uM KAM; RB50

CAMK4 = target: T2, CAMK4 (Homo sapiens, UniProt Q16566); assay: KAM-matrix competition in K562 lysate; assay type: binding;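 for 0.001 uM KAM: median log10 fold change of treatment over DMSO control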;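 for 0.01 uM KAM: median log10 fold change of treatment over DMSO control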;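 for 0.1 uM KAM: median log10 fold change of treatment over DMSO control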;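 for 1 uM KAM: median log10 fold change of treatment over DMSO control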;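 for 10 uM KAM: median log10 fold change of treatment over DMSO control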
T2 construct: endogenous in cells; host or cells: K562
T2 sequence (Q16566 1-473): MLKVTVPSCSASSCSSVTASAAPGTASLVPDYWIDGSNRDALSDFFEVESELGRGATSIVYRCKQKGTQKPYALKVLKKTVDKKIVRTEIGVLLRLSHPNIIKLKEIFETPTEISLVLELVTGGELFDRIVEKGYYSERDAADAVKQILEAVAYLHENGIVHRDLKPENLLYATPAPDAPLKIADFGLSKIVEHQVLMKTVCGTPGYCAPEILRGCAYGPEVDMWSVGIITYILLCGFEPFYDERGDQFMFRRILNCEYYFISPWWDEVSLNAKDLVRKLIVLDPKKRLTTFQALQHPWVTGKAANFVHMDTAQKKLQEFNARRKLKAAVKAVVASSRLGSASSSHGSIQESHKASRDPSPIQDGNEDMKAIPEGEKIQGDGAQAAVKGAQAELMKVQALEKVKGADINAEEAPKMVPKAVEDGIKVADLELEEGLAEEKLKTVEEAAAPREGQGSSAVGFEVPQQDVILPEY
Description: as §1

PAK4 = target: T3, PAK4 (Homo sapiens, UniProt O96013); assay: KAM-matrix competition in K562 lysate; assay type: binding
T3 construct: endogenous in cells; host or cells: K562
Description: as §1

[1] = KAM-matrix competition in K562 lysate; assay type: binding, human; conditions: read-out: RB50 (the source's name)
Description: as §1

KSR1 = target: T4, KSR1 (Homo sapiens, UniProt Q8IVT5); assay: KAM-matrix competition in K562 lysate; assay type: binding;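 for 0.001 uM KAM: median log10 fold change of treatment over DMSO control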;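 for 0.01 uM KAM: median log10 fold change of treatment over DMSO control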;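 for 0.1 uM KAM: median log10 fold change of treatment over DMSO control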;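 for 1 uM KAM: median log10 fold change of treatment over DMSO control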;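 for 10 uM KAM: median log10 fold change of treatment over DMSO control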
T4 construct: endogenous in cells; host or cells: K562
T4 sequence (Q8IVT5 1-923): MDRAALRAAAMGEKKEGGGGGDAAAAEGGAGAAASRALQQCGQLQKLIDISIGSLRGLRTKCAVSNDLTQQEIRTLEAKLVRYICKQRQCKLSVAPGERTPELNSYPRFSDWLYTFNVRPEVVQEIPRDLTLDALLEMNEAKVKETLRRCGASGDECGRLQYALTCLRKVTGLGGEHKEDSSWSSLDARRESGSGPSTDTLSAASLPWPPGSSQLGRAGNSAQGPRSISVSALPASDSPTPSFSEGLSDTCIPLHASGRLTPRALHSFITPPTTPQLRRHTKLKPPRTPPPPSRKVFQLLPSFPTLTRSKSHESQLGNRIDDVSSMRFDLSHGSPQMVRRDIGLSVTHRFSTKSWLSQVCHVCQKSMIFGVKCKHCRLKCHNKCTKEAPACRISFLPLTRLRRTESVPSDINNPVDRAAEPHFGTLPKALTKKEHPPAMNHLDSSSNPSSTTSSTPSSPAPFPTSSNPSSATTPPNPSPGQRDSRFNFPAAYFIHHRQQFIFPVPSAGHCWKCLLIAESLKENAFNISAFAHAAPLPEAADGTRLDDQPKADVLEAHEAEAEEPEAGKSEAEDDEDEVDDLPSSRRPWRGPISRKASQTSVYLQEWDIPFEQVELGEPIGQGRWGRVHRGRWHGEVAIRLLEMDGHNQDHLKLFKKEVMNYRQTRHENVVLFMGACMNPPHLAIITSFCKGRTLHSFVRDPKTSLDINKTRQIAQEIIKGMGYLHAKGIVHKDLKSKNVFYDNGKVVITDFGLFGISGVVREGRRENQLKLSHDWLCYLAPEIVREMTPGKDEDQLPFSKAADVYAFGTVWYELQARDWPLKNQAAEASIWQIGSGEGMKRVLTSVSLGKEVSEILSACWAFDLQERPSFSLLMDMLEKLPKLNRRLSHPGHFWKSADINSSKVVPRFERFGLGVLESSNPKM
Description: as §1

PDIK1L = target: T5, PDIK1L (Homo sapiens, UniProt Q8N165); assay: KAM-matrix competition in K562 lysate; assay type: binding
T5 construct: endogenous in cells; host or cells: K562
Description: as §1

MARK2 = target: T6, MARK2 (Homo sapiens, UniProt Q7KZI7); assay: KAM-matrix competition in K562 lysate; assay type: binding
T6 construct: endogenous in cells; host or cells: K562
Description: as §1

TLK2 = target: T7, TLK2 (Homo sapiens, UniProt Q86UE8); assay: KAM-matrix competition in K562 lysate; assay type: binding;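 for 0.001 uM KAM: median log10 fold change of treatment over DMSO control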;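 for 0.01 uM KAM: median log10 fold change of treatment over DMSO control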;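 for 0.1 uM KAM: median log10 fold change of treatment over DMSO control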;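 for 1 uM KAM: median log10 fold change of treatment over DMSO control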;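 for 10 uM KAM: median log10 fold change of treatment over DMSO control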
T7 construct: endogenous in cells; host or cells: K562
Description: as §1

[2] = KAM 0.001-10 uM, read-out: RB50 (the source's name)
[3] = read-out: RB50 (the source's name)

T6 sequence (Q7KZI7 whole entry): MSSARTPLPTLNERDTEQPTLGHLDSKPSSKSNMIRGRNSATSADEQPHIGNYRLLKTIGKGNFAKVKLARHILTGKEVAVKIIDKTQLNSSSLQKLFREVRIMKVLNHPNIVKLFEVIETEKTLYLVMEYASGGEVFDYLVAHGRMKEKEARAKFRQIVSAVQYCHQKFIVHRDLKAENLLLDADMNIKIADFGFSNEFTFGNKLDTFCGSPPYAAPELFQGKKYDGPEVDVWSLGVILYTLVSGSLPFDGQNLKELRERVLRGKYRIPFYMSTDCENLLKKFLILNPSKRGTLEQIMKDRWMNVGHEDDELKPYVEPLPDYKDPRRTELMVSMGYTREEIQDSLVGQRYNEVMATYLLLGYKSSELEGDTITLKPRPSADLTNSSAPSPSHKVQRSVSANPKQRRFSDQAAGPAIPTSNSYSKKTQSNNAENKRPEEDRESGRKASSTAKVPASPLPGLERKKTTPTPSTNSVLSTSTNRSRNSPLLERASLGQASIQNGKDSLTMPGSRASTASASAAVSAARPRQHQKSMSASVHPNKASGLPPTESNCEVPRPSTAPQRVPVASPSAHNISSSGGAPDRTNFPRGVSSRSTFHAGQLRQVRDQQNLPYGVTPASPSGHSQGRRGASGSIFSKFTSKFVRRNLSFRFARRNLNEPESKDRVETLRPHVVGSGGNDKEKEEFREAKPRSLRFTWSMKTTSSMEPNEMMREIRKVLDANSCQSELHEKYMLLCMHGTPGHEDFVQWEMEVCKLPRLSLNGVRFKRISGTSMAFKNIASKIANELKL
T5 sequence (Q8N165 whole entry): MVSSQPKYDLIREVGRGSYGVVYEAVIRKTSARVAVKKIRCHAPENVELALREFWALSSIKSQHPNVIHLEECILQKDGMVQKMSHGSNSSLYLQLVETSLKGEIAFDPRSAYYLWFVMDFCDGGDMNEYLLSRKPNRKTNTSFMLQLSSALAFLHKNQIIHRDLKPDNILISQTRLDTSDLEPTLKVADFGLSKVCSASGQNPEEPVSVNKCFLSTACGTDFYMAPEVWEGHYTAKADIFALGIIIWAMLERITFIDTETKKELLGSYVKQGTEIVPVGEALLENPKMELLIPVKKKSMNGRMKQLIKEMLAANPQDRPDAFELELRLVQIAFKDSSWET
T7 sequence (Q86UE8 whole entry): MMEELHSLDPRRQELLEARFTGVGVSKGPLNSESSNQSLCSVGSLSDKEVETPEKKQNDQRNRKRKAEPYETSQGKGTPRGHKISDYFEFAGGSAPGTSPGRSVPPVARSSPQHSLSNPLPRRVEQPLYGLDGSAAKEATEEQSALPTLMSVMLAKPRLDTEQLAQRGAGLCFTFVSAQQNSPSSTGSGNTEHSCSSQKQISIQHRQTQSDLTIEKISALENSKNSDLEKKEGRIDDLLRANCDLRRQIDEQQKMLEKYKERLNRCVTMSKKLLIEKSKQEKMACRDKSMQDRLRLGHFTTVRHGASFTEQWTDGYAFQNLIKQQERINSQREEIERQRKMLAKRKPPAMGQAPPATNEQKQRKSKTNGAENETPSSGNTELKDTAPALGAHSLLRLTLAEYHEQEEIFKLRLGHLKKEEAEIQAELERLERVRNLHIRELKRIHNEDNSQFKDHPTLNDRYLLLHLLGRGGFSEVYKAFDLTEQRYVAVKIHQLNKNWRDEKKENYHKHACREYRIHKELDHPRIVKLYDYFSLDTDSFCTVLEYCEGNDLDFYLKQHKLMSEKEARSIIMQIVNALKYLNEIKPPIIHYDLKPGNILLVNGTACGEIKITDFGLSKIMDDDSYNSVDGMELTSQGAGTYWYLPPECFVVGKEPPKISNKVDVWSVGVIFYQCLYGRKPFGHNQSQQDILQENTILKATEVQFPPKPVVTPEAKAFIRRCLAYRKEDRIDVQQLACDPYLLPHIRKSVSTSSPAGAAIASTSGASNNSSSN
T3 sequence (O96013 whole entry): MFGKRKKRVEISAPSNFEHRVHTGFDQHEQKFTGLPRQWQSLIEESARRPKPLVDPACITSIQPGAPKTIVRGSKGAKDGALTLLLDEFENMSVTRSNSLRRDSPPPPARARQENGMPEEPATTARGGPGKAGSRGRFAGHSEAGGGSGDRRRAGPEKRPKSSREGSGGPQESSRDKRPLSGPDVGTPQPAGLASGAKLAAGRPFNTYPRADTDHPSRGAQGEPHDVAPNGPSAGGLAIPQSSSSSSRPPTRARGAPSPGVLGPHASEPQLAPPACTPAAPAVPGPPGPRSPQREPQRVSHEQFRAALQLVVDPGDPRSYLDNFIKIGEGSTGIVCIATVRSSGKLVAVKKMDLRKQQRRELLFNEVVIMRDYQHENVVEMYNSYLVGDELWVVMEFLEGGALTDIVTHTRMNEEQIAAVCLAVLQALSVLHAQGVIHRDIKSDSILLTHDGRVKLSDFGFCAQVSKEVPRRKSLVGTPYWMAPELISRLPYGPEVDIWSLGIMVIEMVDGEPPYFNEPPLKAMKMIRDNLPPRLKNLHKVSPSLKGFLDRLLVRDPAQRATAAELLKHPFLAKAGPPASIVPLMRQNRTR

N#CCc1ccc(Nc2nc(NCCCN)cc(Nc3cc(C4CC4)[nH]n3)n2)cc1 [KAM]
IC50 (NEK2; [2]): 5870 nM | 0.001 uM KAM (NEK2; relative to 0 uM KAM = 0): 0.005896 | 0.01 uM KAM (NEK2; relative to 0 uM KAM = 0): 0.02457 | 0.1 uM KAM (NEK2; relative to 0 uM KAM = 0): -0.07556 | 1 uM KAM (NEK2; relative to 0 uM KAM = 0): -0.1875 | 10 uM KAM (NEK2; relative to 0 uM KAM = 0): -0.3106 | IC50 (CAMK4; [2]): > 10000 nM | 0.001 uM KAM (CAMK4; relative to 0 uM KAM = 0): -0.0432 | 0.01 uM KAM (CAMK4; relative to 0 uM KAM = 0): 0.002565 | 0.1 uM KAM (CAMK4; relative to 0 uM KAM = 0): 0.008768 | 1 uM KAM (CAMK4; relative to 0 uM KAM = 0): 0.00582 | 10 uM KAM (CAMK4; relative to 0 uM KAM = 0): -0.03437 | median Log10 fold change (PAK4; 0.001 uM KAM): -0.02305 | median Log10 fold change (PAK4; 0.01 uM KAM): -0.006782 | median Log10 fold change (PAK4; 0.1 uM KAM): -0.1812 | median Log10 fold change (PAK4; 1 uM KAM): -0.403 | median Log10 fold change (PAK4; 10 uM KAM): -0.4884 | IC50 (PAK4; [3]): 527 nM | IC50 [1]: 435 nM | IC50 (KSR1; [2]): > 10000 nM | 0.001 uM KAM (KSR1; relative to 0 uM KAM = 0): -0.01848 | 0.01 uM KAM (KSR1; relative to 0 uM KAM = 0): -0.01741 | 0.1 uM KAM (KSR1; relative to 0 uM KAM = 0): -0.1182 | 1 uM KAM (KSR1; relative to 0 uM KAM = 0): -0.1931 | 10 uM KAM (KSR1; relative to 0 uM KAM = 0): -0.2362 | median Log10 fold change (PDIK1L; 0.001 uM KAM): -0.01583 | median Log10 fold change (PDIK1L; 0.01 uM KAM): -0.03169 | median Log10 fold change (PDIK1L; 0.1 uM KAM): -0.1434 | median Log10 fold change (PDIK1L; 1 uM KAM): -0.3076 | median Log10 fold change (PDIK1L; 10 uM KAM): -0.3596 | IC50 (PDIK1L; [3]): 1310 nM | median Log10 fold change (MARK2; 0.001 uM KAM): -0.02617 | median Log10 fold change (MARK2; 0.01 uM KAM): -0.01928 | median Log10 fold change (MARK2; 0.1 uM KAM): -0.2168 | median Log10 fold change (MARK2; 1 uM KAM): -0.4361 | median Log10 fold change (MARK2; 10 uM KAM): -0.5469 | IC50 (MARK2; [3]): 336 nM | IC50 (TLK2; [2]): > 10000 nM | 0.001 uM KAM (TLK2; relative to 0 uM KAM = 0): -0.002954 | 0.01 uM KAM (TLK2; relative to 0 uM KAM = 0): -0.03195 | 0.1 uM KAM (TLK2; relative to 0 uM KAM = 0): -0.07515 | 1 uM KAM (TLK2; relative to 0 uM KAM = 0): 0.001633 | 10 uM KAM (TLK2; relative to 0 uM KAM = 0): -0.09222
